Here are results for 17 molecules from patent US9994570B2, “Bridged diazepane orexin receptor antagonists” (MERCK SHARP & DOHME CORP., priority 2014, dated 2018).

Experiment [1] addresses T1, human orexin-2 receptor (Homo sapiens, UniProt O43614).
T1 construct: expressed in transfected cells; host or cells: CHO cells (grown under G418 selection)
T1 sequence (O43614 1-444): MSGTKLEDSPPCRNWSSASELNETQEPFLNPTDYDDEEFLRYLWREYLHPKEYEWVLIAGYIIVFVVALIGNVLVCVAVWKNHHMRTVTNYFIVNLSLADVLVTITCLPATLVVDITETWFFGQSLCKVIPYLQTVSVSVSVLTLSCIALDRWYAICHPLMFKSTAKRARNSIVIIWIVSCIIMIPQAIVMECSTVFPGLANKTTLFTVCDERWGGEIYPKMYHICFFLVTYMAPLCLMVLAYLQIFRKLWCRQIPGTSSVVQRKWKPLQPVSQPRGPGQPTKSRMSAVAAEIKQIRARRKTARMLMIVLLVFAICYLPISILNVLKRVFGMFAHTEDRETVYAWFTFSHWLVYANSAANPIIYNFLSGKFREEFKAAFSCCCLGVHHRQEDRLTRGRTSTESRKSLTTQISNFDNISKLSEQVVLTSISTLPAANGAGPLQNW
The conditions noted are these: comparison compound disclosed in U.S. Pat. No. 8,685,961; cited from earlier work.

The target in experiment [2] is T2, rat orexin-1 receptor (Rattus norvegicus, UniProt P56718).
T2 construct: expressed in transfected cells; host or cells: CHO cells (grown under G418 selection)
T2 sequence (P56718 1-416): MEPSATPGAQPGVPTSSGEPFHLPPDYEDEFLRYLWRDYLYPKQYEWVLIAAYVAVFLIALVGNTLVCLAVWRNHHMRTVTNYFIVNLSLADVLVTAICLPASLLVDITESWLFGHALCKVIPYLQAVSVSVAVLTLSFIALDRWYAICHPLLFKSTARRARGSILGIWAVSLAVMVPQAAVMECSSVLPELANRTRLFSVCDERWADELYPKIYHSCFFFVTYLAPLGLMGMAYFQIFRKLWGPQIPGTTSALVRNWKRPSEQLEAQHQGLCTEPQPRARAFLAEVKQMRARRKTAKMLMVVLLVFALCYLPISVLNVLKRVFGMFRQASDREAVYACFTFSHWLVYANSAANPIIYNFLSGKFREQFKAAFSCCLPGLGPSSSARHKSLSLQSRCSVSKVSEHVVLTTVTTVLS
The experiment is described as follows: FLIPR Ca2+ flux assay, OX1R. In kind it is cell-based. The conditions noted are these: CHO cells expressing the rat orexin-1 receptor; agonist 70 pM Ala-6,12 orexin-A. On the procedure:
(§1) The utility of the compounds in accordance with the present invention as orexin receptor OX1R and/or OX2R antagonists may be readily determined without undue experimentation by methodology well known in the art, including the “FLIPR Ca^2+ Flux Assay” (Okumura et al., Biochem. Biophys. Res. Comm. 280:976-981, 2001). In a typical experiment the OX1 and OX2 receptor antagonistic activity of the compounds of the present invention was determined in accordance with the following experimental method. For intracellular calcium measurements, Chinese hamster ovary (CHO) cells expressing the rat orexin-1 receptor or the human orexin-2 receptor, are grown in Iscove's modified DMEM containing 2 mM L-glutamine, […], 1% hypoxanthine-thymidine supplement, 100 U/ml penicillin, 100 μg/ml streptomycin and 10% heat-inactivated fetal calf serum (FCS). The cells are seeded at 20,000 cells/well into Becton-Dickinson black 384-well clear bottom sterile plates coated with poly-D-lysine. All reagents were from GIBCO-Invitrogen Corp. The seeded plates are incubated overnight at 37° C. and 5% CO2. Ala-6,12 human orexin-A as the agonist is prepared as a 1 mM stock solution in 1% bovine serum albumin (BSA) and diluted in assay buffer (HBSS containing 20 mM HEPES, 0.1% BSA and 2.5 mM probenecid, pH7.4) for use in the assay at a final concentration of 70 pM. Test compounds are prepared as 10 mM stock solution in DMSO, then diluted in 384-well plates, first in DMSO, then assay buffer. On the day of the assay, cells are washed 3 times with 100 μl assay buffer and then incubated for 60 min (37° C., 5% CO2) in 60 μl assay buffer containing 1 μM Fluo-4AM ester, 0.02% pluronic acid, and 1% BSA. The dye loading solution is then aspirated and cells are washed 3 times with 100 μl assay buffer. 30 μl of that same buffer is left in each well. Within the Fluorescent Imaging Plate Reader (FLIPR, Molecular Devices), test compounds are added to the plate in a volume of 25 μl, incubated for 5 min and finally 25 μl of agonist is added. Fluorescence is measured for each well at 1 second intervals for 5 minutes and the height of each fluorescence peak is compared to the height of the fluorescence peak induced by 70 pM Ala-6,12 orexin-A with buffer in place of antagonist. For each antagonist, IC50 value (the concentration of compound needed to inhibit 50% of the agonist response) is determined. Alternatively, compound potency can be assessed by a radioligand binding assay (described in Bergman et. al. Bioorg. Med. Chem. Lett. 2008, 18, 1425-1430) in which the inhibition constant (Ki) is determined in membranes prepared from CHO cells expressing either the OX1 or OX2 receptor. The intrinsic orexin receptor antagonist activity of a compound which may be used in the present invention may be determined by these assays.
Background: Calcium flux is commonly read through the fluorescence of an indicator in the cells.

Experiment [3] deals with T1, human orexin-2 receptor. The experiment is described as follows: FLIPR Ca2+ flux assay, OX2R. Conditions: for IC50: CHO cells expressing the human orexin-2 receptor, agonist 70 pM Ala-6,12 orexin-A; for Fold Selective: OX1R FLIPR / OX2R FLIPR. In kind it is cell-based. How it is done:
as §1

Molecules are shown by their SMILES.

On to `Cc1ccc(-n2nccn2)c(C(=O)N2CCCN(c3nc4ccccc4o3)CC2)c1` [Example B-3], for which, in experiment [1], the “selectivity between the orexin-1 receptor and the orexin-2 receptor” value is reported as “greater selectivity for the orexin-1 receptor than for the orexin-2 receptor”.
For the molecule `Cc1cc(C)nc(N2CC3CC2CN(C(=O)c2ccc(F)cc2C2CC2)C3)n1` (stereo not shown) [Example 14, 3-[(2-cyclopropyl-4-fluorophenyl)carbonyl]-6-(4,6-dimethylpyrimidin-2-yl)-3,6-diazabicyclo[3.2.1]octane], the IC50 (in general, the midpoint of a concentration-inhibition curve) was determined as 1450 nM in experiment [2] and 26 nM in experiment [3]. For the same molecule, in experiment [3], the “Fold Selective” value is given as 56.
Take `CO[C@@H]1CCN(c2ncccc2C(=O)N2CC3CC(C2)N(c2nc(C)cc(C)n2)C3)C1` (stereo partly drawn) [Example 46, (6-(4,6-dimethylpyrimidin-2-yl)-3,6-diazabicyclo[3.2.1]octan-3-yl)(2-((R)-3-methoxypyrrolidin-1-yl)pyridin-3-yl)methanone]: the IC50 in experiment [2] was > 10000 nM. Moreover, in experiment [3], the IC50 was 90 nM and the “Fold Selective” value is >111.
For `Cc1cc(C)nc(N2CC3CC2CN(C(=O)c2ccccc2C2(F)CC2)C3)n1` (stereo not shown) [Example 18, 6-(4,6-dimethylpyrimidin-2-yl)-3-{[2-(1-fluorocyclopropyl)-phenyl]carbonyl}-3,6-diazabicyclo[3.2.1]octane] the same measures were 872 nM, 15 nM and 58.
For `Cc1cc(C)nc(N2CC3CC2CN(C(=O)c2cccnc2OCCC(F)(F)F)C3)n1` (stereo not shown) [Example 44, 6-(4,6-dimethylpyrimidin-2-yl)-3-{[2-(3,3,3-trifluoropropoxy)pyridin-3-yl]carbonyl}-3,6-diazabicyclo[3.2.1]octane] the same measures were 932 nM, 21 nM and 44.
The like results for `Cc1cc(C)nc(N2CC3CC2CN(C(=O)c2nccnc2OCC(F)(F)F)C3)n1` (stereo not shown) [Example 50, 6-(4,6-dimethylpyrimidin-2-yl)-3-{[3-(2,2,2-trifluoroethoxy)pyrazin-2-yl]carbonyl}-3,6-diazabicyclo[3.2.1]octane] were, in that order, > 10000 nM, 36 nM and >278.
On to `Cc1cc(C)nc(N2CC3CC2CN(C(=O)c2cccnc2-n2nccn2)C3)n1` (stereo not shown) [Example 31, 6-(4,6-dimethylpyrimidin-2-yl)-3-{[2-(2H-1,2,3-triazol-2-yl)pyridin-3-yl]carbonyl}-3,6-diazabicyclo[3.2.1]octane], for which the IC50 is > 10000 nM in experiment [2] and 90 nM in experiment [3]. Also, in experiment [3], the “Fold Selective” value was >111.
The like results for `Cc1cc(C)nc(N2CC3CC2CN(C(=O)c2ccccc2C2(C#N)CC2)C3)n1` (stereo not shown) [Example 29, 1-(2-{[6-(4,6-dimethylpyrimidin-2-yl)-3,6-diazabicyclo[3.2.1]oct-3-yl]carbonyl}-phenyl)-cyclopropanecarbonitrile] were, in that order, 1120 nM, 13 nM and 86.
For `Cc1cc(C)nc(N2CC3CC2CN(C(=O)c2cccnc2OCC(F)(F)F)C3)n1` (stereo not shown) [Example 22, 6-(4,6-dimethylpyrimidin-2-yl)-3-{[2-(2,2,2-trifluoroethoxy)pyridin-3-yl]carbonyl}-3,6-diazabicyclo[3.2.1]octane] the same measures were 1040 nM, 13 nM and 80.
Consider `CCCc1ccccc1C(=O)N1CC2CC(C1)N(c1nc(C)cc(C)n1)C2` (stereo not shown) [Example 27, 6-(4,6-dimethylpyrimidin-2-yl)-3-[(2-propylphenyl)carbonyl]-3,6-diazabicyclo[3.2.1]octane], for which the values for the IC50 in experiment [2] and in experiment [3] were 1180 nM and 14 nM, respectively. Moreover, the “Fold Selective” value in experiment [3] is on record as 84.
For `Cc1cc(C)nc(N2CC3CC2CN(C(=O)c2cccnc2OCC(F)(F)C(F)F)C3)n1` (stereo not shown) [Example 43, 6-(4,6-dimethylpyrimidin-2-yl)-3-{[2-(2,2,3,3-tetrafluoropropoxy)pyridin-3-yl]carbonyl}-3,6-diazabicyclo[3.2.1]octane] the same measures were 206 nM, 5 nM and 41.
The like results for `COCCc1ccccc1C(=O)N1CC2CC(C1)N(c1nc(C)cc(C)n1)C2` (stereo not shown) [Example 33, 6-(4,6-dimethylpyrimidin-2-yl)-3-{[2-(2-methoxyethyl)-phenyl]carbonyl}-3,6-diazabicyclo[3.2.1]octane] were, in that order, 3990 nM, 44 nM and 91.
For `Cc1cc(C)nc(N2CC3CC2CN(C(=O)c2nccnc2OCC(C)(F)F)C3)n1` (stereo not shown) [Example 53, (3-(2,2-difluoropropoxy)pyrazin-2-yl)(6-(4,6-dimethylpyrimidin-2-yl)-3,6-diazabicyclo[3.2.1]octan-3-yl)methanone] the same measures were 6450 nM, 39 nM and 165.
`Cc1cc(C)nc(N2CC3CC2CN(C(=O)c2cc(F)cnc2C2CC2)C3)n1` (stereo not shown) [Example 8] returned an IC50 in experiment [2] of 5860 nM. In experiment [3], the IC50 came to 29 nM and the “Fold Selective” value was 202.
The like results for `Cc1cc(C)nc(N2CC3CC2CN(C(=O)c2cccnc2OCC(C)O)C3)n1` (stereo not shown) [Example 45, 1-[(3-{[6-(4,6-dimethylpyrimidin-2-yl)-3,6-diazabicyclo[3.2.1]oct-3-yl]carbonyl}pyridin-2-yl)oxy]propan-2-ol] were, in that order, > 10000 nM, 90 nM and >111.
`Cc1cc(C)nc(N2CC3CC2CN(C(=O)c2cccnc2OCC2CC2(F)F)C3)n1` (stereo not shown) [Example 41, 3-({2-[(2,2-difluorocyclopropyl)methoxy]pyridin-3-yl}carbonyl)-6-(4,6-dimethylpyrimidin-2-yl)-3,6-diazabicyclo[3.2.1]octane]: the values for the IC50 in experiment [2] and in experiment [3] were 584 nM and 12 nM, respectively. The “Fold Selective” value in experiment [3] was 49.
The like results for `Cc1cc(C)nc(N2CC3CC2CN(C(=O)c2cccnc2OCC(F)F)C3)n1` (stereo not shown) [Example 9, (2-(2,2-difluoroethoxy)pyridin-3-yl)(6-(4,6-dimethylpyrimidin-2-yl)-3,6-diazabicyclo[3.2.1]octan-3-yl)methanone] were, in that order, 1830 nM, 15 nM and 122.
